{
  "source": "BindingDB's records for patent US11339122",
  "about": "(University of Pittsburgh, 2022)",
  "biological_target": "Transient receptor potential cation channel subfamily V member 1 (Homo sapiens, UniProt Q8NER1)",
  "sequence (Q8NER1 whole entry)": "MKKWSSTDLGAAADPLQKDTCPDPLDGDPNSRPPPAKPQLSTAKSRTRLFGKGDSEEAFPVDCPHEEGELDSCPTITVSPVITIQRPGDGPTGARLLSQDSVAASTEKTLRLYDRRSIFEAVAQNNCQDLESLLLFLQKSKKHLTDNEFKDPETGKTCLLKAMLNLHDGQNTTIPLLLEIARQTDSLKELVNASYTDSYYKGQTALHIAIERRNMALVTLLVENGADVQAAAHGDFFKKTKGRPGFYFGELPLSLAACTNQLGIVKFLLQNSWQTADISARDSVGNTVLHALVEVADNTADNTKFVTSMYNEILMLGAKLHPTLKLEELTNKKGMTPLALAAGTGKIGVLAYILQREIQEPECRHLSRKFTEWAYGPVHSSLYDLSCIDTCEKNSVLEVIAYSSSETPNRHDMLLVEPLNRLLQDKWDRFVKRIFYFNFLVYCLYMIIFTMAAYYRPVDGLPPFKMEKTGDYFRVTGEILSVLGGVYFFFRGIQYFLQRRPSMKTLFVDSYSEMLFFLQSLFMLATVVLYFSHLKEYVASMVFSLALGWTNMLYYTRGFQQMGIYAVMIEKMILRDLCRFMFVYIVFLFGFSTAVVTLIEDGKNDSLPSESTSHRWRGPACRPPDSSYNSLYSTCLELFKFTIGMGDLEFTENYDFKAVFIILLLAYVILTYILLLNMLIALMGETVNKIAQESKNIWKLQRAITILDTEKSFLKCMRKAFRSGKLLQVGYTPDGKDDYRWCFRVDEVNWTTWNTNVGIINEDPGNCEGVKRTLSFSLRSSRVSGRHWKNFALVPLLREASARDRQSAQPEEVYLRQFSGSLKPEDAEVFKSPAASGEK",
  "assay": "RTX Competition Binding Assay.",
  "method": "Binding studies with [3H]RTX were carried out as follows. The binding assay mixtures were prepared in 1.5 ml centrifuge tubes and consisted of a fixed concentration (approximately 2 nM) of [3H]RTX (37 Ci/mmol specific activity, PerkinElmer Life Sciences), various concentrations of competing ligands, and […] of membranes from induced CHO-hTRPV1 expressing cells (approximately 1-3×10^6 cells) in Dulbecco's phosphate buffered saline (DPBS, with Ca2+ & Mg2+) for a total volume of 350 μl. The assay mix contained bovine serum albumin at a final concentration of 0.25 mg/ml (Cohn fraction V; Sigma-Aldrich, St. Louis, Mo.). In each set of experiments, nonspecific binding were determined in the presence of 200 nM non-radioactive RTX. The binding reaction was initiated by placing the assay mixture in a 37° C. shaking water bath for 60 minutes ([…]). The assay mixture was then chilled on ice for 2-3 min before adding 100 μl of α1-acid glycoprotein (2 mg/ml; Sigma-Aldrich) and mixed thoroughly. The tubes were kept on ice for an additional 10 min. The bound and free ligands were then separated by centrifugation (12,200 rpm for 15 minutes) in a Beckman Coulter centrifuge Allegra 21R. 200 μl of supernatant was collected for determination of free ligand. The remainder was removed by aspiration.",
  "note": "pKi: −log10 of the molar value.",
  "data": [
    {"smiles": "CCOC(=O)c1ccc(NC(=O)Nc2ccc(F)cc2)cc1", "note": "[US11339122, Compound 5b]", "values": [
      {"measurement": "pKi", "result": 5.55}
    ]}
  ]
}
